{
  "source": "patent US11453683B1",
  "about": "“KRas G12D inhibitors” (Mirati Therapeutics, Inc., priority 2019, dated 2022)",
  "data": [
    {"tested_on": "KRas G12D-mediated phosphorylation of ERK", "test": "Inhibition of KRas G12D-mediated phosphorylation of ERK in AGS cells", "type": "cell-based", "details": "Homo sapiens; AGS cells expressing G12D, 3 hours, phospho-ERK normalized to GAPDH", "description": "Cells were plated in tissue culture treated 96 well plates at a density of 40,000 cells/well and allowed to attach for 12-14 hours. Diluted compounds were then added in a final concentration of 0.5% DMSO. After 3 hours, the medium was removed, 150 μL of 4.0% formaldehyde was added and the plates incubated at room temperature for 20 minutes. The plates were washed with PBS, and permeabilized with 150 μL of ice cold 100% methanol for 10 minutes. Non-specific antibody binding to the plates was blocked using 100 μL Licor blocking buffer (Li-Cor Biotechnology, Lincoln Nebr.) for 1 hour at room temperature.\nThe amount of phospho-ERK was determined using an antibody specific for the phosphorylated form of ERK and compared to the amount of GAPDH. Primary antibodies used for the detection were added as follows: Phospho-ERK (Cell Signaling cs-9101) diluted 1:500 and GAPDH (Millipore MAB374) diluted 1:5000 in Licor block+0.05% Tween 20. The plates were incubated for 2 hours at room temperature. The plates were washed with PBS+0.05% Tween 20.\nSecondary antibodies used to visualize primary antibodies were added as follows: Anti-rabbit-680 diluted 1:1000 and Anti-mouse-800 diluted 1:1000 both in Licor block+0.05% TweeN2O, and were incubated for 1 hour at room temperature. The plates were washed with PBS+0.05% Tween 20. A 100 μL aliquot of PBS was added to each well and the plates were read on a Li-Cor Odyssey CLX plate reader.\nThe phospho-ERK (Thr202/Tyr204 signal was normalized to the GAPDH signal for each well and percent of DMSO control values were calculated. IC50 values were generated using a 4-parameter fit of the dose response curve", "units": {"IC50": "µM"}, "values": [
      {"smiles": "Oc1cc(-c2ncc3c(N4C[C@H]5CC[C@@H](C4)N5)nc(OC[C@@H]4CCCN4Cc4ccccc4)nc3c2F)c2ccccc2c1", "note": "[Example 12, 4-(2-(((S)-1-benzylpyrrolidin-2-yl)methoxy)-4-((1R,5S)-3,8-diazabicyclo[3.2.1]octan-3-yl)-8-fluoropyrido[4,3-d]pyrimidin-7-yl)naphthalen-2-ol]", "IC50": 4.91},
      {"smiles": "CN1CCC[C@H]1COc1nc(N2C[C@H]3CC[C@@H](C2)N3)c2cnc(-c3cc(O)c(Br)c4ccccc34)c(F)c2n1", "note": "[Example 14, 4-(4-((1R,5S)-3,8-diazabicyclo[3.2.1]octan-3-yl)-8-fluoro-2-(((S)-1-methylpyrrolidin-2-yl)methoxy)pyrido[4,3-d]pyrimidin-7-yl)-1-bromonaphthalen-2-ol]", "IC50": 4.84},
      {"smiles": "Cc1cccc2cccc(-c3ncc4c(N5C[C@H]6CC[C@@H](C5)N6)nc(OC[C@@H]5CCCN5C)nc4c3F)c12", "note": "[Example 15, 4-((1R,5S)-3,8-diazabicyclo[3.2.1]octan-3-yl)-8-fluoro-7-(8-methylnaphthalen-1-yl)-2-(((S)-1-methylpyrrolidin-2-yl)methoxy)pyrido[4,3-d]pyrimidine]", "IC50": "> 16.7"},
      {"smiles": "CN1C[C@H](F)C[C@H]1COc1nc(N2C[C@H]3CC[C@@H](C2)N3)c2cnc(-c3cc(O)cc4ccccc34)c(F)c2n1", "note": "[Example 16, 4-(4-((1R,5S)-3,8-diazabicyclo[3.2.1]octan-3-yl)-8-fluoro-2-(((2S,4R)-4-fluoro-1-methylpyrrolidin-2-yl)methoxy)pyrido[4,3-d]pyrimidin-7-yl)naphthalen-2-ol]", "IC50": 3.83},
      {"smiles": "CN(C)CCOc1nc(N2C[C@H]3CC[C@@H](C2)N3)c2cnc(-c3cc(O)cc4ccccc34)c(F)c2n1", "note": "[Example 18, 4-(4-((1R,5S)-3,8-diazabicyclo[3.2.1]octan-3-yl)-2-(2-(dimethylamino)ethoxy)-8-fluoropyrido[4,3-d]pyrimidin-7-yl)naphthalen-2-ol]", "IC50": 3.74},
      {"smiles": "CN1CCC[C@H]1COc1nc(N2C[C@H]3CC[C@@H](C2)N3)c2cnc(-c3cccc4ccc(F)cc34)c(F)c2n1", "note": "[Example 19, 4-((1R,5S)-3,8-diazabicyclo[3.2.1]octan-3-yl)-8-fluoro-7-(7-fluoronaphthalen-1-yl)-2-(((S)-1-methylpyrrolidin-2-yl)methoxy)pyrido[4,3-d]pyrimidine]", "IC50": "> 16.7"},
      {"smiles": "Oc1cc(-c2ncc3c(N4C[C@H]5CC[C@@H](C4)N5)nc(OCCCN4CCOCC4)nc3c2F)c2ccccc2c1", "note": "[Example 22, 4-(4-((1R,5S)-3,8-diazabicyclo[3.2.1]octan-3-yl)-8-fluoro-2-(3-morpholinopropoxy)pyrido[4,3-d]pyrimidin-7-yl)naphthalen-2-ol]", "IC50": 1.89},
      {"smiles": "CC(Oc1nc(N2C[C@H]3CC[C@@H](C2)N3)c2cnc(-c3cc(O)cc4ccccc34)c(F)c2n1)C1CCCN1C", "note": "(stereo partly drawn) [Example 27, 4-(4-((1R,5S)-3,8-diazabicyclo[3.2.1]octan-3-yl)-8-fluoro-2-(1-(1-methylpyrrolidin-2-yl)ethoxy)pyrido[4,3-d]pyrimidin-7-yl)naphthalen-2-ol]", "IC50": 1.28},
      {"smiles": "CN1C[C@H](C(F)(F)F)C[C@H]1COc1nc(N2C[C@H]3CC[C@@H](C2)N3)c2cnc(-c3cc(O)cc4ccccc34)c(F)c2n1", "note": "[Example 28, 4-(4-((1R,5S)-3,8-diazabicyclo[3.2.1]octan-3-yl)-8-fluoro-2-(((2S,4R)-1-methyl-4-(trifluoromethyl)pyrrolidin-2-yl)methoxy)pyrido[4,3-d]pyrimidin-7-yl)naphthalen-2-ol]", "IC50": 11.7},
      {"smiles": "CC(C)N1CCC[C@H]1COc1nc(N2C[C@H]3CC[C@@H](C2)N3)c2cnc(-c3cccc4cccc(Cl)c34)c(F)c2n1", "note": "[Example 29, 4-((R,5S)-3,8-diazabicyclo[3.2.1]octan-3-yl)-7-(8-chloronaphthalen-1-yl)-8-fluoro-2-(((S)-1-isopropylpyrrolidin-2-yl)methoxy)pyrido[4,3-d]pyrimidine]", "IC50": 13.6}
    ]}
  ]
}
